{"source": "paper PMC6207720", "about": "“Identification and antitumor activity of a novel inhibitor of the NIMA-related kinase NEK6” (Scientific Reports, 2018)", "key": {"NEK1": {"molecular_target": "T1, NEK1 (Homo sapiens, UniProt Q96PY6)", "T1 sequence (Q96PY6 1-1258)": "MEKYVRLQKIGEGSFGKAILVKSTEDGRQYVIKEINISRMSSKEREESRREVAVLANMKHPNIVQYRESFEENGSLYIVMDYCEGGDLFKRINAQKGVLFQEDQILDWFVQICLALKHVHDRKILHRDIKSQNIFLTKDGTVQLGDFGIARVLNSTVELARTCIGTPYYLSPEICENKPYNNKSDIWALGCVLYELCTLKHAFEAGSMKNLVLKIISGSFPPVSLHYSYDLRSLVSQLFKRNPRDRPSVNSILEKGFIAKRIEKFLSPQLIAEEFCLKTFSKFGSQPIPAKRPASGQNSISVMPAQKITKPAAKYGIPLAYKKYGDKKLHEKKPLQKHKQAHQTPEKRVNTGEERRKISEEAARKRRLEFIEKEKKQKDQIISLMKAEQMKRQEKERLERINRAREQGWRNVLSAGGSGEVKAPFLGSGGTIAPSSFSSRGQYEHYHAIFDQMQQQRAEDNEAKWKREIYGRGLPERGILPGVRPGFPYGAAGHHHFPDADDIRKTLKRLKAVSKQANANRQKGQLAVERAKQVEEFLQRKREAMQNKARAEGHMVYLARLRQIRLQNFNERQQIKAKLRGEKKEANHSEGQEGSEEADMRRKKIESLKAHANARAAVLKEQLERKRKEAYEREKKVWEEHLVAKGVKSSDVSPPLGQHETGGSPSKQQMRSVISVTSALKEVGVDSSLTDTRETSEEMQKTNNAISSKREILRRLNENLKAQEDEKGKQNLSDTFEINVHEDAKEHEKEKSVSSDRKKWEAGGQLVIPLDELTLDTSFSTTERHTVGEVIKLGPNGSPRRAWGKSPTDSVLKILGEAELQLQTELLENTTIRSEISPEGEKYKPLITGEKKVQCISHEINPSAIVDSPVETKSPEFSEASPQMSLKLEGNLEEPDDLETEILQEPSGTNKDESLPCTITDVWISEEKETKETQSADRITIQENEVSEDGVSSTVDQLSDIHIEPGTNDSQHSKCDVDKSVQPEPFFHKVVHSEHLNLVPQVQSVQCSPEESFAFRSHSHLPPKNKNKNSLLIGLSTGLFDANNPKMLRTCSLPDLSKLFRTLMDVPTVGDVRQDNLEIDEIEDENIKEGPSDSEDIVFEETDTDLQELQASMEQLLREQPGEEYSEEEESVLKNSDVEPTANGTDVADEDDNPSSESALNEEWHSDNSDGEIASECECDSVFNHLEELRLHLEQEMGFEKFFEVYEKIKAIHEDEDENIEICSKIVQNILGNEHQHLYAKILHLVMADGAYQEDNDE", "test": "Off-chip Mobility Shift Assay (MSA) profiling, NEK1", "format": "biochemical", "settings": "ATP approximating Km", "experimental": "(§1) Therefore, we decided to evaluate the selectivity of compound 8 against a panel of NEK kinases at 10 µM, using the technique of Off-chip Mobility shift assay. This concentration was chosen according to the guidelines proposed by Knight and Shokat, since the probability of off-target effects increases dramatically above 10 µM[36]. Furthermore, ATP concentration was set to approximate the Km,ATP for each kinase, so that the resulting selectivity profile directly reflects the intrinsic affinities of the inhibitor[37]. […] A major consequence of this substitution may be the redistribution of surface charges at the flexible activation loop resulting in an altered electrostatic potential and ability of NEK6 kinase to interact with other molecules.\n(§2) The inhibitory activity of compounds 8 and 21 on NEK6 was also verified with MSA technique (Off-chip Mobility shift assay) (CARNA Biosciences Study ID: CBS170097, CARNA Biosciences, Kobe). […] PKR Inhibitor was used as positive control. For profiling study against NEK kinases (i.e. NEK1, NEK2, NEK6, NEK7, NEK9) (CARNA Biosciences Study ID: CBS170098), 8 was tested at 10 μM and ATP concentration approximating Km for each kinase. Assay condition for kinases are available on “Kinase profiling book” downloading by www.carnabio.com (https://www.carnabio.com/output/pdf/ProfilingProfilingBook_en.pdf)."}, "NEK9": {"molecular_target": "T2, NEK9 (Homo sapiens, UniProt Q8TD19)", "T2 sequence (Q8TD19 1-979)": "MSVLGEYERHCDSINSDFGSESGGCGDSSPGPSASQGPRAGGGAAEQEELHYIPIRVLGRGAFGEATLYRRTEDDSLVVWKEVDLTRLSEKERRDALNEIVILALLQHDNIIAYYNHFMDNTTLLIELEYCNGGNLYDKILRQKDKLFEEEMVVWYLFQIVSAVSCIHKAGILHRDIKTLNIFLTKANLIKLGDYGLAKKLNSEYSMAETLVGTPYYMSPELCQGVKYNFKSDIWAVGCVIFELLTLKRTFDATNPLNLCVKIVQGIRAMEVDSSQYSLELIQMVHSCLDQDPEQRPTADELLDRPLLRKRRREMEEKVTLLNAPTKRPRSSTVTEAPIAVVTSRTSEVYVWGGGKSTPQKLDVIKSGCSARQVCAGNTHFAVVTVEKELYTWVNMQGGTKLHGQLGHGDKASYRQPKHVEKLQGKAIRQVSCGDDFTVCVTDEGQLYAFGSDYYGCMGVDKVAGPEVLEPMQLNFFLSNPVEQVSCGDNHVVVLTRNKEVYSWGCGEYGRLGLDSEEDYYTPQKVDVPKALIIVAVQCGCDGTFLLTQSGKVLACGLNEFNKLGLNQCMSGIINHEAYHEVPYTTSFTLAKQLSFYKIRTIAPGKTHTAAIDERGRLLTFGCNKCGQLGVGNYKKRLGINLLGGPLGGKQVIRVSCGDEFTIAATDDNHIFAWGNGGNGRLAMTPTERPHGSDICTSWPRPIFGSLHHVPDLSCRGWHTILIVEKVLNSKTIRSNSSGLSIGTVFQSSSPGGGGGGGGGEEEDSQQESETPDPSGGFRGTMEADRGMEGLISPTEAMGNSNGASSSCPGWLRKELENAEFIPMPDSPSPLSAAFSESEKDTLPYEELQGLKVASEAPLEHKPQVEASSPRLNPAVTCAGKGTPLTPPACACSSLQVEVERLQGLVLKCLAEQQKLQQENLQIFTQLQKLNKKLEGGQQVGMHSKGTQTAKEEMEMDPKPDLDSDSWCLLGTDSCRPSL", "test": "Off-chip Mobility Shift Assay (MSA) profiling, NEK9", "format": "biochemical", "settings": "ATP approximating Km", "experimental": "as §1, §2"}}, "data": [{"smiles": "CC1=C(C#N)C(O)=NC(=O)/C1=C\\c1ccc(-c2ccccc2)o1", "note": "[Compound 8, (5Z)-2-hydroxy-4-methyl-6-oxo-5-[(5-phenylfuran-2-yl)methylidene]-5,6-dihydropyridine-3-carbonitrile]", "values": [{"measurement": "inhibition at 10 µM", "setting": "NEK1", "result": 47, "unit": "%"}, {"measurement": "inhibition at 10 µM", "setting": "NEK9", "result": 3.1, "unit": "%"}]}]}
